Data published in US12577216B2, “Triazine benzoate compound and application thereof” (SHENYANG SINOCHEM AGROCHEMICALS R&D CO., LTD., priority 2020, dated 2026).

Columns and labels:
piemarker = experiment: Determination of herbicidal activity, post-emergence stem and leaf spray, piemarker; type: in vivo; conditions: for pest or weed control at 150 g/ha: post-emergence, read-out: control effects on piemarker; for pest or weed control at 150 g/ha / control effects on piemarker: 150 g a.i./hm^2, after emergence, visual 0-100%; for Herbicidal activity for Piemarker, control effect %: Table 4 parallel comparison
Protocol: (§1) Seeds of broadleaf weeds (zinnia and piemarker) or grassy weeds (green bristlegrass and barnyard grass) were respectively sown in a paper cup having a diameter of 7 cm and containing nutrient soil; after sowing, the seeds were covered with 1 cm of soil; the soil was pressed and watered, and then the seeds were cultivated in a greenhouse according to a conventional method; and stems and leaves were sprayed after 2-3 leaf stage of the weeds.
(§2) After the original medicinal acetone was dissolved, the test requires to use 1‰ of Tween 80 to stand in running water to prepare the solution to be tested with a required concentration. According to the design dose of the test, spray treatment was carried out on a track-type crop sprayer (designed and produced by British Engineer Research Ltd.) (spray pressure is 1.95 kg/cm^2, spray volume is 500 L/hm^2 and track speed is 1.48 km/h). The test was repeated for three times. The test material was treated and then placed in an operation hall. The medicinal liquid was naturally dried in the shade, and then was placed in a greenhouse and managed according to the conventional method. The response of the weeds to the drug was observed and recorded. After treatment, the control effects of the test drug on the weeds were visually inspected regularly, expressed by 0-100%. “0” represents no control effect and “100%” represents complete killing.

zinnia = experiment: Determination of herbicidal activity, post-emergence stem and leaf spray, zinnia; type: in vivo; conditions: for control effects on zinnia: 150 g a.i./hm^2, after emergence, visual 0-100%; for Herbicidal activity for Zinnia, control effect %: Table 3 parallel comparison
Protocol: as §1, §2

[1] = 2.34 g a.i./hm^2, after emergence
[2] = 9.375 g a.i./hm^2, after emergence

SMILES | pest or weed control at 150 g/ha (piemarker) [%] | control effects on zinnia (zinnia) [%] | Herbicidal activity for Zinnia, control effect % (zinnia; [1]) [%] | Herbicidal activity for Zinnia, control effect % (zinnia; [2]) [%] | control effects on piemarker (piemarker) [%] | Herbicidal activity for Piemarker, control effect % (piemarker; [1]) [%] | Herbicidal activity for Piemarker, control effect % (piemarker; [2]) [%]
C[C@@H](OC(=O)c1cc(-n2c(=O)n(C)c(=S)n(C)c2=O)c(F)cc1Cl)C(=O)OCCCl [Compound 266] | 100 | 100 | 85 | 100 |  |  | 
CCOC(=O)C(OC(=O)c1cc(-n2c(=O)n(C)c(=S)n(C)c2=O)c(F)cc1Cl)C(C)C (stereo not drawn) [Compound 305] |  | 100 |  |  | 100 |  | 
CC(OC(=O)c1cc(-n2c(=O)n(C)c(=S)n(C)c2=O)c(F)cc1Cl)C(=O)OCCF (stereo not drawn) [Compound 264] |  | 100 | 90 | 100 | 100 |  | 
CC(OC(=O)c1cc(-n2c(=O)n(C)c(=S)n(C)c2=O)ccc1Cl)C(=O)OCCCl (racemic) [Compound 138] |  |  |  |  | 100 |  | 
CC(OC(=O)c1cc(-n2c(=O)n(C)c(=S)n(C)c2=O)ccc1Cl)C(=O)OCC1CC1 (stereo not drawn) [Compound 160] |  |  |  |  | 100 |  | 
CCOC(=O)C(C)(C)OC(=O)c1cc(-n2c(=O)n(C)c(=S)n(C)c2=O)c(F)cc1Cl [Compound 306, 2-chloro-4-fluoro-5-(3,5-dimethyl-2,6-dioxo-4-thio-1,3,5-triazine-1-yl)benzoic acid (1-methyl-1-ethoxycarbonyl)ethyl ester] | 100 |  |  |  |  |  | 
CC(OC(=O)c1cc(-n2c(=O)n(C)c(=S)n(C)c2=O)c(F)cc1Cl)C(=O)OC/C=C/c1ccccc1 (stereo not drawn) [Compound 290] |  | 100 |  |  | 100 |  | 
CC(OC(=O)c1cc(-n2c(=O)n(C)c(=S)n(C)c2=O)c(F)cc1Cl)C(=O)OCC1CCCC1 (stereo not drawn) [Compound 293] |  | 100 | 90 | 100 | 100 | 85 | 100
C[C@H](OC(=O)c1cc(-n2c(=O)n(C)c(=S)n(C)c2=O)c(F)cc1Cl)C(=O)OCCCCl [Compound 270] |  | 100 | 90 | 100 | 100 | 85 | 100
CC(OC(=O)c1cc(-n2c(=O)n(C)c(=S)n(C)c2=O)c(F)cc1Cl)C(=O)OCCCCl (racemic) [Compound 268] |  | 100 | 85 | 100 | 100 |  | 
CCC(OC(=O)c1cc(-n2c(=O)n(C)c(=S)n(C)c2=O)c(F)cc1Cl)C(=O)OCCCCCl (stereo not drawn) [Compound 303] |  | 100 | 85 | 100 | 100 |  | 
CC(OC(=O)c1cc(-n2c(=O)n(C)c(=S)n(C)c2=O)c(F)cc1Cl)C(=O)OCCCl (racemic) [Compound 265] |  | 100 |  |  | 100 | 90 | 100
C[C@H](OC(=O)c1cc(-n2c(=O)n(C)c(=S)n(C)c2=O)c(F)cc1Cl)C(=O)OCCCl [Compound 267] | 100 | 100 | 85 | 100 |  | 90 | 100
CCC(OC(=O)c1cc(-n2c(=O)n(C)c(=S)n(C)c2=O)c(F)cc1Cl)C(=O)OCC1CC1 (stereo not drawn) [Compound 304] |  | 100 | 80 | 100 | 100 |  | 
CC(OC(=O)c1cc(-n2c(=O)n(C)c(=S)n(C)c2=O)c(F)cc1Cl)C(=O)OCC1COC(C)(C)O1 (stereo not drawn) [Compound 297] |  | 100 | 95 | 100 | 100 | 85 | 100
CCC(OC(=O)c1cc(-n2c(=O)n(C)c(=S)n(C)c2=O)c(F)cc1Cl)C(=O)OCCF (stereo not drawn) [Compound 300, 2-chloro-4-fluoro-5-(3,5-dimethyl-2,6-dioxo-4-thio-1,3,5-triazine-1-yl)benzoic acid (1-(2-fluoroethoxycarbonyl))propyl ester] | 100 | 100 |  |  |  |  | 
CCOC(=O)C(CC)OC(=O)c1cc(-n2c(=O)n(C)c(=S)n(C)c2=O)c(F)cc1Cl (stereo not drawn) [Compound 299] |  | 100 |  |  |  | 85 | 100
CC(OC(=O)c1cc(-n2c(=O)n(C)c(=S)n(C)c2=O)c(F)cc1Cl)C(=O)OCC1CCCO1 (stereo not drawn) [Compound 296] |  | 100 | 90 | 100 | 100 |  | 
CCC(OC(=O)c1cc(-n2c(=O)n(C)c(=S)n(C)c2=O)c(F)cc1Cl)C(=O)OCCCl (stereo not drawn) [Compound 301] |  | 100 |  |  | 100 |  | 
CC(OC(=O)c1cc(-n2c(=O)n(C)c(=S)n(C)c2=O)c(F)cc1Cl)C(=O)OCc1ccccc1 (stereo not drawn) [Compound 289] |  | 100 |  |  | 100 |  | 
CC(OC(=O)c1cc(-n2c(=O)n(C)c(=S)n(C)c2=O)c(F)cc1Cl)C(=O)OCCCCCl (stereo not drawn) [Compound 273] |  | 100 |  |  | 100 | 90 | 100
C[C@@H](OC(=O)c1cc(-n2c(=O)n(C)c(=S)n(C)c2=O)c(F)cc1Cl)C(=O)OCCCCl [Compound 269] |  | 100 | 80 | 95 | 100 |  | 
CCC(OC(=O)c1cc(-n2c(=O)n(C)c(=S)n(C)c2=O)c(F)cc1Cl)C(=O)OCCCCl (stereo not drawn) [Compound 302] |  | 100 | 90 | 100 | 100 |  | 
CC(OC(=O)c1cc(-n2c(=O)n(C)c(=S)n(C)c2=O)c(F)cc1Cl)C(=O)OCC1CO1 (stereo not drawn) [Compound 295] |  | 100 | 90 | 100 | 100 |  | 
